Drawing on US4113957A, “1-Substituted pyrazoles” (Bayer Aktiengesellschaft, priority 1975, dated 1978), this text covers inhibition for one molecule.

The test deals with venous thrombs (left jugular vein). Nature of the test: Antithrombotic action: thromb formation in supercooled jugular vein of rats. Format: in vivo. To be noted: Rattus norvegicus, po, 10 mg/kg orally, reduction of thromb size vs control, after 4 hours. The procedure: The left jugular vein of rats weighing 170 to 180 g was exposed under ether narcosis and supercooled to -12° C. for 2 minutes to stimulate thromb formation. The thromb was isolated from the vein 4 hours later, and was weighed. The test animals were given the test preparation in tragacanth mucilage immediately before supercooling the wall of the blood vessel. As a result, the protective antithrombotic activity was tested in the first 4 hours after stimulating thromb formation.

Turning to `Cc1cc(OC(=O)c2ccco2)n(CCOc2ccc3ccccc3c2)n1` [Example 20, 5-(Furyl-(2)-carbonyloxy)-3-methyl-1-(2-(β-naphthyloxy)-ethyl)-pyrazole], testing at 10 mg/kg gave an inhibition of 61%.
